# From patent US20260256714A1 (priority 2022, published 2026)
# Legend:
# glucocorticoid receptor = target: T1, glucocorticoid receptor (Homo sapiens, UniProt P04150); test: fluorescence polarization competition assay (POLARSCREEN Glucocorticoid Receptor Competitor Assay Kit, Red); type: binding
# T1 sequence (P04150 1-777): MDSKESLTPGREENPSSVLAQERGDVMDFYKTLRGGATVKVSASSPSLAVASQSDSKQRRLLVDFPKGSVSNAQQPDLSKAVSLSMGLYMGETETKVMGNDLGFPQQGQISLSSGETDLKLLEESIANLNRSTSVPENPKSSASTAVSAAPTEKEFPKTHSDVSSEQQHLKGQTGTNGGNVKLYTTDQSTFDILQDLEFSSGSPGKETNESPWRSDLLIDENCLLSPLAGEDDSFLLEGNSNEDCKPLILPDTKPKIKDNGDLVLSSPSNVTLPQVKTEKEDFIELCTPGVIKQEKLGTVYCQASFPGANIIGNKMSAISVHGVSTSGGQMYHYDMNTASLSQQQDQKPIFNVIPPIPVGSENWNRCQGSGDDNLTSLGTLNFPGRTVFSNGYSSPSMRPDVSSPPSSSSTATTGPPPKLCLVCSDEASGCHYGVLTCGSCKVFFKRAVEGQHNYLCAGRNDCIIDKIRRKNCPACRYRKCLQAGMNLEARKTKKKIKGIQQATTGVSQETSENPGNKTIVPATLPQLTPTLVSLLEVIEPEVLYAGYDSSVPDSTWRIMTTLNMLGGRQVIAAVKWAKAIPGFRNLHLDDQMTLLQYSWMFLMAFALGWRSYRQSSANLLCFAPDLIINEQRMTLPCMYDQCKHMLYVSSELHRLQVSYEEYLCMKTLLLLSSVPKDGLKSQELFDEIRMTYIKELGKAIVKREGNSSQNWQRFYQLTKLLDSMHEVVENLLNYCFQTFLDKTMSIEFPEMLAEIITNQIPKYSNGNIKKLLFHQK
# Experimental: The principle of the assay is to determine the binding affinity of a small molecule compound to glucocorticoid receptor by measuring the decrease in polarization caused by the failure of the fluormone tracer to bind to the glucocorticoid receptor in the presence of a small molecule compound that competitively binds to the glucocorticoid receptor.
# The excitation wavelength used for the measurement was 535 nm, and the emission wavelength was 590 nm. This experiment was performed three times using the same method and the average value was calculated. A dose-response curve was derived using the measured values, and the IC50 value was calculated by finding the concentration of the sample corresponding to half of the highest measured value.
# [1] = test system: intracellular glucocorticoid receptor; test: luciferase assay in GR-GAL4 Reporter (Luc)-HEK293 cells; type: cell-based; conditions: different concentrations, 1 hour before dexamethasone 20 nM, 24 hours incubation
# Experimental: In this Example, transfected cells GR-GAL4 Reporter (Luc)-HEK293 (BPS Bioscience, USA) containing a recombinant gene in which luciferase is recombined into the promoter site of GRE were used. Transformed cells were seeded at 30,000 cells per well in 96 wells and stabilized for 16 hours. […] After 1 hour, the cells were treated with dexamethasone, a glucocorticoid agonist, at a concentration of 20 nM and incubated for 24 hours. 100 μL of ONE-STEP™ Luciferase Assay System (BPS Bioscience, USA) was added per well and reacted for 10 minutes, and then luminescence was measured using SpectraMax iD3 (Molecular Devices, USA).
# 3T3-L1 cells = test: Oil Red O staining of MDI-differentiated 3T3-L1 preadipocytes (fat accumulation); type: cell-based; conditions: 0.5 or 1 μM every 48 hours, 6 days of MDI differentiation
# Experimental: To differentiate 3T3-L1 cells grown to a confluent state into adipocytes, they were cultured in DMEM medium supplemented with MDI {0.5 mM isobutyl-methylxanthine, 1 μM dexamethasone, and 5 μg/mL insulin} for 48 h, then cultured in DMEM medium supplemented with 5 μg/mL insulin for 48 h, and then cultured in a medium containing 10% fetal bovine serum for 48 h.
# The cells were incubated for a total of 6 days, and the cultures were removed at which point differentiation was complete, followed by Oil Red O staining. The cells were fixed with 35 to 40% formaldehyde for 15 minutes, washed with PBS, and stained with Oil Red O solution for 20 minutes. After completion of staining, the cells were washed four times with PBS, dissolved in isopropanol (2-propanol), and O.D. values were measured at 515 nm.
smiles,measurement,setting,value
"C[C@@]1(C(=O)O)CC[C@]2(C)CC[C@]3(C)C4=CC(=O)c5c(cc(O)c(O)c5C=O)[C@]4(C)CC[C@@]3(C)[C@@H]2C1 [demethylzeylasteral, (2R,4aS,6aR,6aS,14aS,14bR)-9-formyl-10,11-dihydroxy-2,4a,6a,6a,14a-pentamethyl-8-oxo-1,3,4,5,6,13,14,14b-octahydropicene-2-carboxylic acid]",IC50,glucocorticoid receptor,1190 nM
same,inhibitory effect on intracellular glucocorticoid receptor activity (luminescence),[1],inhibited intracellular glucocorticoid receptor activity in a concentration-dependent manner
same,"intracellular fat accumulation (Oil Red O, O.D. at 515 nm)",3T3-L1 cells,reduction of intracellular fat accumulation in a concentration-dependent manner
